# Laboratory results: patent US9682013B2, “Pharmaceutical compositions comprising human antibodies to PCSK9” (SANOFI BIOTECHNOLOGY, priority 2011, dated 2017)
# What was measured:
# [1] = tested on: patients with an elevated low-density lipoprotein cholesterol (LDL-C) (≧100 mg/dL or 2.59 mmol/L); experiment: Study 1: randomized, double-blind, placebo-controlled 12-week study of antibody 316P on stable atorvastatin; type: in vivo, human; details: for Cholesterol, Week 12 % change from baseline, Mean / Cholesterol, Week 12 % change from baseline, Median / Cholesterol, Week 12, Mean / Cholesterol, Week 12, Median / Cholesterol, Week 12 change from baseline, Mean / Cholesterol, Week 12 change from baseline, Median / LDL Cholesterol, Week 12—% change from baseline, Mean / LDL Cholesterol, Week 12—% change from baseline, Median / Non-HDL Cholesterol, Week 12 % change from baseline, Mean / Non-HDL Cholesterol, Week 12 % change from baseline, Median / LS mean difference vs. placebo in percent change from baseline in LDL-C at 12 weeks: on stable atorvastatin
# Protocol: This was a multicenter, randomized, double-blind, parallel-group, placebo-controlled, 12-week study to assess the efficacy and safety of antibody 316P in patients with an elevated low-density lipoprotein cholesterol (LDL-C) (≧100 mg/dL or 2.59 mmol/L), when treated with atorvastatin (10 mg, 20 mg, or 40 mg) at a stable dose for at least 6 weeks. The randomization was stratified by the dose of atorvastatin received prior to randomization. After the double-blind period patients were followed during an 8-week follow-up period. The primary objective of the study was to evaluate the effect of antibody 316P on LDL-C levels after 12 weeks of treatment in comparison with placebo in patients with LDL-C (≧100 mg/dL or 2.59 mmol/L) on ongoing stable atorvastatin therapy.
# The following doses/dose regimens were evaluated: 50 mg, 100 mg and 150 mg every 2 weeks (E2W), 200 mg and 300 mg every 4 weeks (E4W) in comparison with placebo.
# Present study comprised a total of 122 patients (20 in placebo, 19 in 50 mg E2W group, 20 in 100 mg E2W group, 20 in 150 mg E2W group, 22 in 200 mg E4W group, and 21 in 300 mg E4W group).
# Inclusion criteria: • Patients (patients receiving a lipid lowering treatment other than atorvastatin/or not at stable dose of atorvastatin 10 mg, 20 mg or 40 mg for at least 6 weeks prior to screening period or drug naïve patients) with primary hypercholesterolemia likely to have low-density lipoprotein cholesterol (LDL-C)≧100 mg/dL (≧2.59 mmol/L) at the end of the run-in period on atorvastatin therapy (Week-1). • OR • Patients with primary hypercholesterolemia treated with atorvastatin at stable dose of 10 mg, 20 mg, or 40 mg for at least 6 weeks prior to screening period and likely to have LDL-C≧100 mg/dL (≧2.59 mmol/L) at the screening visit Week-1. […]
# male Syrian hamster = experiment: Study 4: cholesterol lowering effect of 316P alone and with atorvastatin in hamster; type: in vivo
# Text: This is an animal study on the cholesterol lowering effect of 316P, a fully human PCSK9 blocking monoclonal antibody in male Syrian hamster
# The aim of this study was to investigate the effect of 316P, a human monoclonal antibody to human PCSK9, alone and in combination with statins on expression of the hepatic LDLR and the resulting effects on serum LDL-C.
# The maximal effect on LDL-C (−17/−27/−60%) was seen within 7 days. PK data of 316P are in line with the dose-dependent effect on LDL-C.
# [2] = tested on: patients with heterozygous familial hypercholesterolemia (heFH); experiment: Study 6: randomized, placebo-controlled 12-week trial in heFH on statin with or without ezetimibe (interim analysis); type: in vivo, human; details: every two or four weeks
# Protocol: A randomized, double-blind, multi-dose, placebo controlled, 75-patient trial in patients with heterozygous familial hypercholesterolemia (heFH). In this trial, patients must meet the World Health Organization criteria for heFH, be on a stable daly statin regimen for at least 6-weeks before entering the trial, and have serum LDL-C levels ≧100 mg/dL. Patients were permitted to be taking ezetimibe in addition to a daily statin. The primary endpoint of the study is the change in LDL cholesterol from baseline compared to placebo over the 12-week study period.
# Patients treated with different doses of 316P achieved mean LDL-C reductions of approximately 30% to greater than 60% from baseline at 12-weeks compared to a 10% reduction with placebo (p<0.01), which was the primary endpoint of the study. The interim analysis was conducted when all patients completed the primary endpoint at 12-weeks.
# hPCSK9 = hPCSK9 (Homo sapiens, UniProt Q8NBP7); details: unmutated hPCSK9; cited from earlier work
# Chain of hPCSK9 (Q8NBP7 153-692): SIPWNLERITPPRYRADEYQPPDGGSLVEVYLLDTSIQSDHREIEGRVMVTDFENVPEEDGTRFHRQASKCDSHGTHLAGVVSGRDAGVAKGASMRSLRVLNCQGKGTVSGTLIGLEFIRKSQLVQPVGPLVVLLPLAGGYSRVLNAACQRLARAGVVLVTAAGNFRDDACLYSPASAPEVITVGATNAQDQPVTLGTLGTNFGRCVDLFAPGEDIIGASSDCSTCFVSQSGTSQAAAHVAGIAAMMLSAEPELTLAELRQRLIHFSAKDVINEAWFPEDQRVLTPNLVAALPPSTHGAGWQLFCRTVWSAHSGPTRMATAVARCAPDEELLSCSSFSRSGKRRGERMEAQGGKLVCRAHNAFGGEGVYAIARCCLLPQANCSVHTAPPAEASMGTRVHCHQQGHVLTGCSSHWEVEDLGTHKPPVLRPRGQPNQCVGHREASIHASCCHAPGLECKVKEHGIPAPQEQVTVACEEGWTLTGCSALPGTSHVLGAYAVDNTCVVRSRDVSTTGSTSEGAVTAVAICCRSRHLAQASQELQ
# hPCSK9 D238 mutated = hPCSK9 D238 mutated (Homo sapiens, UniProt Q8NBP7, D238R); details: cited from earlier work
# Chain of hPCSK9 D238 mutated (Q8NBP7 153-692 D238R): as the sequence (Q8NBP7 153-692) above, with D86R counted along it
# [3] = 12 weeks, all doses/dose regimens
# [4] = single s.c. injection 1/3/10 mg/kg
substance,measurement,setting,value
316P: fully human anti-PCSK9 antibody comprising a HCVR as shown in SEQ ID NO: 90 and LCVR as shown in SEQ ID NO: 92 [Antibody 316P],"Cholesterol, Week 12 % change from baseline, Mean",[1]; 50 mg E2W,−24.21%
same,"Cholesterol, Week 12 % change from baseline, Median",[1]; 50 mg E2W,−23.34%
same,"Cholesterol, Week 12, Mean",[1]; 50 mg E2W,3.974 mmol/L
same,"Cholesterol, Week 12, Median",[1]; 50 mg E2W,3.937 mmol/L
same,"Cholesterol, Week 12 change from baseline, Mean",[1]; 50 mg E2W,-1.313 mmol/L
same,"Cholesterol, Week 12 change from baseline, Median",[1]; 50 mg E2W,-1.399 mmol/L
same,"LDL Cholesterol, Week 12—% change from baseline, Mean",[1]; 50 mg E2W,−41.06%
same,"LDL Cholesterol, Week 12—% change from baseline, Median",[1]; 50 mg E2W,−37.04%
same,"Non-HDL Cholesterol, Week 12 % change from baseline, Mean",[1]; 50 mg E2W,−35.23%
same,"Non-HDL Cholesterol, Week 12 % change from baseline, Median",[1]; 50 mg E2W,−36.62%
same,maintenance of LDL-C decrease observed after the first injection,"[1]; 100 mg E2W and 150 mg E2W groups, also throughout the interval period between the injections",maintained throughout the study
same,"Cholesterol, Week 12 % change from baseline, Mean",[1]; 100 mg E2W,−38.97%
same,"Cholesterol, Week 12 % change from baseline, Median",[1]; 100 mg E2W,−40.21%
same,"Cholesterol, Week 12, Mean",[1]; 100 mg E2W,3.288 mmol/L
same,"Cholesterol, Week 12, Median",[1]; 100 mg E2W,3.238 mmol/L
same,"Cholesterol, Week 12 change from baseline, Mean",[1]; 100 mg E2W,-2.098 mmol/L
same,"Cholesterol, Week 12 change from baseline, Median",[1]; 100 mg E2W,-2.163 mmol/L
same,"LDL Cholesterol, Week 12—% change from baseline, Mean",[1]; 100 mg E2W,−63.90%
same,"LDL Cholesterol, Week 12—% change from baseline, Median",[1]; 100 mg E2W,−64.28%
same,LS mean difference vs. placebo in percent change from baseline in LDL-C at 12 weeks,[1]; 100 mg E2W,−58.36%
same,"Non-HDL Cholesterol, Week 12 % change from baseline, Mean",[1]; 100 mg E2W,−54.78%
same,"Non-HDL Cholesterol, Week 12 % change from baseline, Median",[1]; 100 mg E2W,−55.91%
same,number of patients with LDL-C reduction from baseline >50% at week 12,"[1]; 150 mg E2W group, among 18 patients",17
same,"Cholesterol, Week 12 % change from baseline, Mean",[1]; 150 mg E2W,−45.21%
same,"Cholesterol, Week 12 % change from baseline, Median",[1]; 150 mg E2W,−45.03%
same,"Cholesterol, Week 12, Mean",[1]; 150 mg E2W,2.922 mmol/L
same,"Cholesterol, Week 12, Median",[1]; 150 mg E2W,2.823 mmol/L
same,"Cholesterol, Week 12 change from baseline, Mean",[1]; 150 mg E2W,-2.466 mmol/L
same,"Cholesterol, Week 12 change from baseline, Median",[1]; 150 mg E2W,-2.331 mmol/L
same,"LDL Cholesterol, Week 12—% change from baseline, Mean",[1]; 150 mg E2W,−72.68%
same,"LDL Cholesterol, Week 12—% change from baseline, Median",[1]; 150 mg E2W,−74.83%
same,LS mean difference vs. placebo in percent change from baseline in LDL-C at 12 weeks,[1]; 150 mg E2W,−68.78%
same,"Non-HDL Cholesterol, Week 12 % change from baseline, Mean",[1]; 150 mg E2W,−63.71%
same,"Non-HDL Cholesterol, Week 12 % change from baseline, Median",[1]; 150 mg E2W,−65.94%
same,"Cholesterol, Week 12 % change from baseline, Mean",[1]; 200 mg E4W,−29.54%
same,"Cholesterol, Week 12 % change from baseline, Median",[1]; 200 mg E4W,−29.51%
same,"Cholesterol, Week 12, Mean",[1]; 200 mg E4W,3.709 mmol/L
same,"Cholesterol, Week 12, Median",[1]; 200 mg E4W,3.587 mmol/L
same,"Cholesterol, Week 12 change from baseline, Mean",[1]; 200 mg E4W,-1.596 mmol/L
same,"Cholesterol, Week 12 change from baseline, Median",[1]; 200 mg E4W,-1.716 mmol/L
same,"LDL Cholesterol, Week 12—% change from baseline, Mean",[1]; 200 mg E4W,−47.23%
same,"LDL Cholesterol, Week 12—% change from baseline, Median",[1]; 200 mg E4W,−49.46%
same,LS mean difference vs. placebo in percent change from baseline in LDL-C at 12 weeks,[1]; 200 mg E4W,−42.53%
same,"Non-HDL Cholesterol, Week 12 % change from baseline, Mean",[1]; 200 mg E4W,−40.07%
same,"Non-HDL Cholesterol, Week 12 % change from baseline, Median",[1]; 200 mg E4W,−39.91%
same,decrease in LDL-C during the interval periods,[1]; 200 mg and 300 mg E4W groups,at least −40%
same,"Cholesterol, Week 12 % change from baseline, Mean",[1]; 300 mg E4W,−29.61%
same,"Cholesterol, Week 12 % change from baseline, Median",[1]; 300 mg E4W,−33.48%
same,"Cholesterol, Week 12, Mean",[1]; 300 mg E4W,3.778 mmol/L
same,"Cholesterol, Week 12, Median",[1]; 300 mg E4W,3.393 mmol/L
same,"Cholesterol, Week 12 change from baseline, Mean",[1]; 300 mg E4W,-1.638 mmol/L
same,"Cholesterol, Week 12 change from baseline, Median",[1]; 300 mg E4W,-2.020 mmol/L
same,"LDL Cholesterol, Week 12—% change from baseline, Median",[1]; 300 mg E4W,−51.98%
same,LS mean difference vs. placebo in percent change from baseline in LDL-C at 12 weeks,[1]; 300 mg E4W,−42.26%
same,"Non-HDL Cholesterol, Week 12 % change from baseline, Mean",[1]; 300 mg E4W,−41.17%
same,"Non-HDL Cholesterol, Week 12 % change from baseline, Median",[1]; 300 mg E4W,−45.55%
same,tolerability,"[1]; 12 weeks of treatment, all tested doses/dose regimens",well tolerated
same,ApoB,[1]; [3],decrease
same,Total-C,[1]; [3],decrease
same,non HDL-C,[1]; [3],decrease
same,HDL-C,"[1]; 12 weeks, all groups",trend of increase
same,percent change from baseline in LDL-C at 12 weeks compared to the placebo group,[1]; all groups,Statistically significant decreases
same,troponin levels,[1]; all treatment groups,no change
same,"LDL-C mean values over 12 weeks and LOCF (FIG. 6, words)","[1]; all treatment groups except placebo, whole study period",significant and persistent reduction of LDL-C levels
same,LDLR expression,male Syrian hamster; 316P on top of Atorvastatin,increased LDLR expression
same,serum LDL-C,male Syrian hamster; 316P on top of Atorvastatin,decreased serum LDL-C
same,statin resistance,male Syrian hamster; 316P on top of Atorvastatin,could overcome the statin resistance
same,combination treatment compared with single treatment,male Syrian hamster; 316P plus Atorvastatin,more effective than single treatment with 316P alone
same,maximal effect on LDL-C,male Syrian hamster; single s.c. injection 1 mg/kg,−17%
same,maximal effect on LDL-C,male Syrian hamster; single s.c. injection 3 mg/kg,−27%
same,maximal effect on LDL-C,male Syrian hamster; single s.c. injection 10 mg/kg,−60%
same,duration of dose-dependent decrease in LDL-C,male Syrian hamster; [4],more than 2 weeks
same,time to maximal effect on LDL-C,male Syrian hamster; [4],≤ 7 days
same,mean LDL-C reductions at 12-weeks compared to placebo,[2],significantly greater mean LDL-C reductions
same,Kd,hPCSK9,~1 nM
same,T1/2 decrease,hPCSK9 D238 mutated; D238 mutated vs unmutated,> 30 fold
same,reduction in binding affinity,hPCSK9 D238 mutated; D238 mutated vs unmutated,> 400 fold
same,Kd,hPCSK9 D238 mutated; D238 mutated,~410 nM
